Source: patent US8252806B2, “Potassium channel modulating agents and their medical use” (Neurosearch A/S, priority 2005, dated 2012)

Key:
[1] = biological target: T1, small-conductance Ca2+-activated K+ channel, subtype 3 (SK3) (Homo sapiens, UniProt Q9UGI6); assay: Whole-cell patch-clamp recording of SK3 current in HEK293 cells stably expressing hSK3; format: cell-based; conditions: baseline current at -20 mV, 300 nM free Ca2+
T1 construct: expressed in transfected cells; host or cells: HEK293 cells stably transfected with pNS3_hSK3
Protocol: The ionic current through small-conductance Ca^2+-activated K^+ channels (SK channels, subtype 3) is recorded using the whole-cell configuration of the patch-clamp technique.
The small-conductance Ca^2+-activated K^+ channel, subtype 3 (SK3) was cloned from human skeletal muscle and stably expressed in HEK293 cells.
Human SK3 (hSK3) was sub-cloned into the expression vector pNS3n, a customized vector derived from pcDNA3 (InVitrogen) to give the plasmid construct pNS3_hSK3. HEK293 tissue culture cells were grown in DMEM (Dulbecco's Modified Eagle Medium) supplemented with 10% FCS (foetal calf serum) at 37° C. in 5% CO2. […]
Experiments are carried out on one of several patch-clamp set-ups. […] Data are stored directly on the hard-disk and analysed by IGOR software (Wavemetrics, Lake Oswega, Oreg., USA).
The whole-cell configuration of the patch-clamp technique is applied. […] Cell capacitance is electronically compensated and the resistance between the pipette and the cell interior (the series resistance, Rs) is measured and compensated for. […]
The intracellular (pipette) solution has the following composition (in mM): 105 KCl, 45 KOH, 10 EGTA, 1.21 MgCl2, 7.63 CaCl2, and 10 HEPES (pH=7.2 with HCl). The calculated free concentration of Ca^2+ in this solution is 300 nM and that of Mg^2+ is 1 mM. […]
Active compounds are quantified by calculating the change in baseline current at −20 mV. […]

| SC100 (Stimulating Concentration required for increasing the baseline current by 100%) [1] | melting point | SMILES |
| --- | --- | --- |
| 0.035 µM |  | Cc1cc(C)n(-c2nc(NC3CCCCC3)c3ccccc3n2)n1 [Compound A8, Cyclohexyl-[2-(3,5-dimethyl-pyrazol-1-yl)-quinazolin-4-yl]-amine] |
|  | 262.4 to 265.3 °C | Cc1cc(C)n(-c2nc(Nc3ccccc3)c3ccccc3n2)n1 [Compound B1, [2-(3,5-Dimethyl-pyrazol-1-yl)-quinazolin-4-yl]-phenyl-amine] |
